Results on 26 compounds are retold here after US20220332695A1, “UREA DERIVATIVES AS CB1 ALLOSTERIC MODULATORS” (RTI INTERNATIONAL, priority 2019, published 2022).

Where two headings read alike, the source gives them in different places. Some results are limits rather than exact numbers.

In series [1] the target is T1, hCB1R (Homo sapiens, UniProt P21554). As to the kind of experiment: [35S]GTPγS binding assay in HEK cells stably expressing human CB1R. The class given is biochemical. More on the design: expressed in transfected cells; host or cells: HEK (HEK293) cells, membranes. The note with it: [CP] = 100 nM, mean (95% confidence interval), read-out: hCB1R [35S]GTPγS binding assay IC50. In general terms: Binding of GTPγS marks nucleotide exchange on a G protein.
T1 sequence (P21554 whole entry): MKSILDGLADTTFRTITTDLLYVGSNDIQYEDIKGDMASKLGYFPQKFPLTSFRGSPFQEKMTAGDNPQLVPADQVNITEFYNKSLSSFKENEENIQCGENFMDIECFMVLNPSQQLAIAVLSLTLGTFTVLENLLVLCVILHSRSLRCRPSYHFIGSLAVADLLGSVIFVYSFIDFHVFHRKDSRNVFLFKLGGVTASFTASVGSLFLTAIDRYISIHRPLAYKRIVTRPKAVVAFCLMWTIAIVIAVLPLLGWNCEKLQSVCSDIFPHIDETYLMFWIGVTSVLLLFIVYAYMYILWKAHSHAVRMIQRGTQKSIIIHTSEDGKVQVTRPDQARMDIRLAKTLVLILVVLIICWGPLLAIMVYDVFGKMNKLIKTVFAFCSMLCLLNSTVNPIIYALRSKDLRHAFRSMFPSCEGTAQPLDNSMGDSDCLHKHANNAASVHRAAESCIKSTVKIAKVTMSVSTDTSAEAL
Method: (§1) [^35S]GTPγS Binding Assay: For receptor signaling, membranes (10 μg protein) from either ICR mouse cerebellum mice (6-8 weeks old; Enviga
(§2) Non-specific binding was determined by adding 30 μM unlabeled GTPyS. Concentration response curves for allosteric modulators were conducted in the presence of CP55,940 (100 nM or 1 μM) to calculate 1050 values.
(§3) For [^35S]GTPyS experiments, data were normalized to maximal CP55,940 (100 nM) stimulation in the absence of test compound (i.e., vehicle=100%).

For series [2], the target named is T1, hCB1R. Briefly: Calcium mobilization assay, antagonist mode against CP55,940. The class given is cell-based. On the set-up: expressed in transfected cells; host or cells: CHO-RD-HGA16 cells (parental line from Molecular Devices). (Calcium flux is commonly read through the fluorescence of an indicator in the cells.)
Method: Calcium Mobilization Assay: CHO-RD-HGA16 cells (Molecular Devices, San Jose, Calif., United States of America) stably expressing the human CB1 receptor were plated into 96-well black-walled assay plates at 25,000 cells/well in 100 pL of Ham's F12 (supplemented with 10% fetal bovine serum, 100 units of penicillin/streptomycin, and 100 µg/mL Normocin) and incubated overnight at 37° C., 5% CO2. Calcium 5 dye (Molecular Devices, San Jose, Calif., United States of America) was reconstituted according to the manufacturer's instructions. The reconstituted dye was diluted 1:40 in prewarmed (37° C.) assay buffer (1x HBSS, 20 mM HEPES, 2.5 mM probenecid, pH 7.4 at 37° C.). Growth medium was removed, and the cells were gently washed with 100 pL of prewarmed (37° C.) assay buffer. The cells were incubated for 45 min at 37° C., 5% CO2 in 200 pL of the diluted Calcium 5 dye solution. […] Serial dilutions of the test compounds were prepared at 10x the desired final concentration in 2.25% BSA/4.5% DMSO/4.5% EtOH/assay buffer. After the dye loading incubation period, the cells were pretreated with 25 pL of the test compound serial dilutions and incubated for 15 min at 37° C. After the pretreatment incubation period, the plate was read with a FLIPR Tetra (Molecular Devices, San Jose, Calif., United States of America). Calcium-mediated changes in fluorescence were monitored every 1 s over a 90 s time period, with the Tetra adding 25 pL of the CP55,940 EC80 concentration at the 10s time point (excitation/emission: 485/525 nm). Relative fluorescence units (RFU) were plotted against the log of compound concentrations. For agonist screens, the above procedure was followed except that cells were pretreated with 2.25% BSA/4.5% DMSO/4.5% EtOH/assay buffer and the Tetra added single concentration dilutions of the test compounds prepared at 10x the desired final concentration in 0.25% BSA/0.5% DMSO/0.5% EtOH/assay buffer. Test compound RFUs were compared to the CP55,940 Emax RFUs to generate % Emax values.
Data Analysis: For calcium mobilization experiments, data were fit to a three-parameter logistic curve to generate IC50 values (GraphPad Prism 6.0, Graphpad Software, San Diego, Calif., United States of America).
A further series deals with T2, mouse CB1R (Mus musculus, UniProt P47746).
T2 construct: membranes (10 μg protein) from either ICR mouse cerebellum mice; from tissue; host or cells: cerebellum membranes of ICR mice
T2 sequence (P47746 whole entry): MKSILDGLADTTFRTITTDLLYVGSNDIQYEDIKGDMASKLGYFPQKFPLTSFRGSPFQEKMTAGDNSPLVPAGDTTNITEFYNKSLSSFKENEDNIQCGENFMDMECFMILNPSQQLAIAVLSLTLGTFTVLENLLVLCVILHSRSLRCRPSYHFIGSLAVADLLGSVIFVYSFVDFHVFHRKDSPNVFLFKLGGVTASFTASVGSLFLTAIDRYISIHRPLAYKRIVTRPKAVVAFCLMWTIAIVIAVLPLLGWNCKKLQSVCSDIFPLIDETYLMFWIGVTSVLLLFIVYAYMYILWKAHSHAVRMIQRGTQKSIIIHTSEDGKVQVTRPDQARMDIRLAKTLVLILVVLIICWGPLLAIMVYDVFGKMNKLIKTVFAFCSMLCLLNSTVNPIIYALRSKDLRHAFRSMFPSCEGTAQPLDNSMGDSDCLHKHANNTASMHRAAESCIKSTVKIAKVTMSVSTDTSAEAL
As to the kind of experiment: [35S]GTPγS binding assay in mouse cerebellum membranes. The class given is biochemical.

The nature of series [3]: Kinetic solubility assessment. The class given is physicochemical. The note with it: aqueous buffer, kinetic from dmso stock, phosphate buffer, 2 hours room temperature. The protocol: The solution was agitated on a VX-2500 multi-tube vortexer (VWR International, Radnor, Pa., United States of America) for 2 hours at room temperature. Following agitation, the sample was filtrated on a glass-fiber filter (1 μm) and the eluate was diluted 400-fold with a mixture of acetonitrile: water (1:1). On each experimental occasion, nicardipine and imipramine were assessed as reference compounds for low and high solubility, respectively. All samples were assessed in triplicate and analyzed by LC-MS/MS using electrospray ionization against standards prepared in the same matrix.

Series [4] can be described thus: Metabolic stability in rat liver microsomes. The class given is in vitro ADME. The protocol:
Metabolic stability assessment: Compounds were incubated with rat liver microsomes at 37° C. for a total of 45 minutes. The reaction was performed at pH 7.4 in 100 mM potassium phosphate buffer containing 0.5 mg/mL of rat liver microsomal protein. Phase I metabolism was assessed by adding NADPH to a final concentration of 1 mM and collecting samples at time points 0, 5, 15, 30 and 45 minutes. All collected samples were quenched 1:1 with ice-cold stop solution (1 μM labetalol and 1 μM glyburide in acetonitrile) and centrifuged to remove precipitated protein. Resulting supernatants were further diluted 1:4 with acetonitrile:water (1:1). Samples were analyzed by LC/MS/MS and calculations for half-life, and in-vitro clearance were accomplished using Microsoft Excel (2007).
For orientation: Microsomes from liver hold many membrane-bound enzymes, among them those of drug oxidation.

Series [5] has as its target T1, hCB1R. Briefly: Real-time BRET CAMYEL cAMP assay in HEK293 cells expressing human CB1. To be noted: for IC50: [CP] = 100 nM, forskolin-stimulated cAMP. The class given is cell-based. More on the design: expressed in transfected cells; host or cells: HEK293 cells stably transfected with human CB1, transiently transfected with pcDNA3L-His-CAMYEL sensor.
Method: cAMP Assay: The cAMP assay was performed as previously described. […] Briefly, forskolin (FSK)-stimulated cyclic adenosine monophosphate (cAMP) production was measured in real-time using a transfected bioluminescence resonance energy transfer (BRET) cAMP sensor. The plasmid encodes a cAMP binding domain (Epac1) flanked by yellow fluorescent protein (YFP) and Renilla Luciferase (RLuc) assay, the latter of which can oxidize coelenterazine H and produce a photon as a byproduct. When cAMP is bound to the Epac1 domain, it separates RLuc and YFP so only Rluc emits a photon at a wavelength of 460 nm. When cAMP is not bound, RLuc can excite YFP, emitting light at wavelength 535 nm. A plate reader measures both wavelengths and their ratio, 460/535, is calculated to quantify cAMP levels where increases in the ratio indicate increases in cAMP. Human Embryonic Kidney 293 (HEK293) cells stably transfected with the human cannabinoid type-1 (C131) were maintained at 37° C. at 5% CO2 and seeded in 100 mM dishes for transfection. The next day, cells were given fresh growth media and transfected with 5 pg of pcDNA3L-His-CAMYEL using linear polyethyleneimine (25 kDa, Polysciences, Warrington, Pennsylvania, United States of America) in 1:6 DNA:PEI (ATCC, Manassas, Virginia, United States of America) ratio. The next day, cells were lifted using 1 mM EDTA in PBS and spun down at 200xg for 5 min. The supernatant was removed, and cells were resuspended in growth media and plated on poly-D-lysine (Sigma Aldrich, St. Louis, Missouri, United States of America) coated white 96 well plates at 60,000 cells per well, filling 2 columns of 8 wells each per plate, i.e. 8 samples in duplicate per plate (Perkin Elmer, Waltham, Massachusetts,
United States of America). The following day, media was removed, cells were rinsed with PBS and buffers/reagents/drugs added as following: At 0 min, 175 of stimulation buffer (5 mg/ml bovine serum albumin in HBSS including Ca^2+ and Mg^2+); at 10 min, 25 μL of allosteric modulators added; at 15 min: 25 μL coelenterazine added (5 μM final); at 25 min, 25 μL of forskolin (10 final) with or without CP55,940 (100 nM final) added. […] Ratio of 460/535 is calculated for each time point and plotted across time and area under the curve analysis is conducted for each replicate and averaged by condition/day where each day serves as an independent experiment. Data were calculated as %FSK using the formula [(sample-basal)/(forskolin-basal)×100]. IC50 values were calculated from these normalized concentration-response data using Prism 6 (Graphpad Software, San Diego, Calif., United States of America) using 3 parameter non-linear regression. Data are plotted as mean of at least N=3 independent experiments either normalized to forskolin (concentration response data) or the calculated 460/535 BRET ratio (time course data).
Setting [6] is: CHO cells expressing human CB1R, against CP55,940 (100 nM), mean ± SEM, read-out: hCB1R Calcium assay IC50.
The mark [7] stands for this setting: mouse cerebellum membrane, [CP] = 100 nM, read-out: mCB1R GTPγS IC50.
Where [8] appears, read: mouse cerebellum membrane, [CP] = 1 uM, read-out: mCB1R GTPγS IC50.
[9] abbreviates: Tables 4-6, CP55,940 concentration not stated, mean (95% confidence interval), read-out: mCB1R [35S]GTPγS binding assay IC50.

As a reminder, the IC50 is the concentration that inhibits the measured activity by half. The solubility is the concentration that dissolves in the medium under given conditions. Read a high solubility as much dissolved substance. A word on the half-life: it is how long it takes for the measured level to halve.

Method for mouse CB1R: as §1, §2, §3
Select compounds were evaluated in the CP55,940-induced [^35S]GTPyS binding assays using mouse cerebellum membrane at two CP55,940 concentrations, 100 nM and 1μM.

Turning to `O=C(Nc1ccc(Cl)cc1)N[C@@H]1C[C@H]1c1ccccc1` (racemic) [Compound 15, trans-1-(4-Chlorophenyl)-3-(2-phenylcyclopropyl)urea], the values for the IC50 at hCB1R [1] and on hCB1R [2] (setting [6]) were over 10 µM and 1.22 ± 0.188 µM, respectively.

`O=C(Nc1ccc(Cl)cc1)N[C@@H]1C[C@@H]1c1ccccc1` (relative stereo) [Compound 16, cis-1-(4-Chlorophenyl)-3-(2-phenylcyclopropyl)urea]: the IC50 at hCB1R [1] and on hCB1R [2] (setting [6]) was over 10 µM throughout.

Take `COc1ccc(-c2cccc(N3CCCC3)n2)cc1NC(=O)Nc1ccc(Cl)cc1` [Compound 6, 3-(4-Chlorophenyl)-1-{2-methoxy-5-[6-(pyrrolidin-1-yl)pyridin-2-yl]phenyl}urea]: the IC50 on hCB1R [1] was over 10 µM; on hCB1R [2] (setting [6]), 1.27 µM.

Take `O=C(Nc1ccc(Cl)cc1)Nc1cc(-c2ccccc2)cs1` [Compound 12, 1-(4-Chlorophenyl)-3-(4-phenylthiophen-2-yl)urea]: the IC50 came out at 0.667 µM at hCB1R [1] and 0.037 ± 0.002 µM at hCB1R [2] (setting [6]). The “activity in [35S]GTPγS binding assay against mouse CB1R (in words)” value on mouse CB1R (compared with compound 2) is on record as “weaker potency”.

Consider `O=C(Nc1ccc(Cl)cc1)Nc1csc(-c2ccccc2)c1` [Compound 13, 1-(4-Chlorophenyl)-3-(5-phenylthiophen-3-yl)urea], for which the IC50 on hCB1R [1] amounted to 0.888 µM; at hCB1R [2] (setting [6]), 0.06 ± 0.008 µM.

For the compound `O=C(Nc1ccc(Cl)cc1)Nc1ccc(-c2ccc(F)cc2)s1` [Compound 18, 1-(4-Chlorophenyl)-3-[5-(4-fluorophenyl)thiophen-2-yl]urea], the 50% inhibitory concentration (IC50) at hCB1R [1] was found to be 0.537 µM; at hCB1R [2] (setting [6]), 0.04 ± 0.002 µM; at mouse CB1R (setting [7]), 0.174 µM; at mouse CB1R (setting [8]) it was 0.145 µM.

As for `O=C(Nc1ccc(Cl)cc1)Nc1ccc(-c2cccc(F)c2)s1` [Compound 19, 1-(4-Chlorophenyl)-3-[5-(3-fluorophenyl)thiophen-2-yl]urea], the IC50 on hCB1R [1] was 0.425 µM; at hCB1R [2] (setting [6]), 0.039 ± 0.006 µM.

Take `O=C(Nc1ccc(Cl)cc1)Nc1ccc(-c2ccc(F)cc2F)s1` [Compound 20, 1-(4-Chlorophenyl)-3-[5-(2,4-difluorophenyl)thiophen-2-yl]urea]: the IC50 turned out to be 0.084 µM on hCB1R [1]; 0.022 ± 0.004 µM at hCB1R [2] (setting [6]); 0.138 µM on mouse CB1R (setting [7]); 0.048 µM on mouse CB1R (setting [8]); 2.29 µM against hCB1R [5]. The solubility at 2 h in series [3] is under 0.5 µM. Moreover, the half-life in series [4] (pH 7.4, NADPH, mean ± SD, read-out: Half-life) was 1.2 h. In series [4] (pH 7.4, mean ± SD, read-out: Clearance), the microsomal CLint came to 19.3 ± 1.6 µL/min/mg.

Take `O=C(Nc1ccc(Cl)cc1)Nc1ccc(-c2ccccc2Cl)s1` [Compound 21, 1-(4-Chlorophenyl)-3-[5-(2-chlorophenyl)thiophen-2-yl]urea]: the IC50 was determined as 0.272 µM on hCB1R [1]; 0.021 ± 0.002 µM at hCB1R [2] (setting [6]); 0.363 µM on mouse CB1R (setting [7]); 0.204 µM on mouse CB1R (setting [8]); 1.19 µM against hCB1R [5]. Moreover, the “inverse agonism in cAMP assay” value on hCB1R [5] (concentrations up to 10 μM) is “displayed inverse agonism”.

On to `O=C(Nc1ccc(Cl)cc1)Nc1ccc(-c2cccc(Cl)c2)s1` [Compound 22, 1-(4-Chlorophenyl)-3-[5-(3-chlorophenyl)thiophen-2-yl]urea], for which the IC50 at hCB1R [1] came to 0.553 µM; on hCB1R [2] (setting [6]), 0.04 ± 0.007 µM.

In the case of `O=C(Nc1ccc(Cl)cc1)Nc1ccc(-c2ccc(Cl)cc2)s1` [Compound 23, 1-(4-Chlorophenyl)-3-[5-(4-chlorophenyl)thiophen-2-yl]urea], the IC50 at hCB1R [1] stood at 0.774 µM; at hCB1R [2] (setting [6]), 0.043 ± 0.007 µM.

Turning to `O=C(Nc1ccc(Cl)cc1)Nc1ccc(-c2ccc(Cl)c(Cl)c2)s1` [Compound 24, 1-(4-Chlorophenyl)-3-[5-(3,4-dichlorophenyl)thiophen-2-yl]urea], the 50% inhibitory concentration (IC50) was 1.72 µM at hCB1R [1] and 0.111 ± 0.014 µM on hCB1R [2] (setting [6]).

For the compound `O=C(Nc1ccc(Cl)cc1)Nc1ccc(-c2cc(Cl)cc(Cl)c2)s1` [Compound 25, 1-(4-Chlorophenyl)-3-[5-(3,5-dichlorophenyl)thiophen-2-yl]urea], the IC50 at hCB1R [1] is 6.33 µM; on hCB1R [2] (setting [6]) it was 0.092 ± 0.012 µM; on mouse CB1R (setting [7]), 3.31 µM; on mouse CB1R (setting [8]) it was 2.4 µM; at hCB1R [5], over 10 µM.

On to `CC(=O)c1cccc(-c2ccc(NC(=O)Nc3ccc(Cl)cc3)s2)c1` [Compound 26, 3-[5-(3-Acetylphenyl)thiophen-2-yl]-1-(4-chlorophenyl)urea], for which the IC50 was determined as 3.43 µM on hCB1R [1] and 0.108 ± 0.017 µM at hCB1R [2] (setting [6]).

As for `COC(=O)c1cccc(-c2ccc(NC(=O)Nc3ccc(Cl)cc3)s2)c1` [Compound 27, Methyl 3-(5-{[(4-chlorophenyl)carbamoyl]amino}thiophen-2-yl)benzoate], the figures for the IC50 on hCB1R [1] and on hCB1R [2] (setting [6]) were 2.35 µM and 0.345 ± 0.048 µM, respectively.

Take `CS(=O)(=O)c1cccc(-c2ccc(NC(=O)Nc3ccc(Cl)cc3)s2)c1` [Compound 28, 1-(4-Chlorophenyl)-3-[5-(3-methanesulfonylphenyl)thiophen-2-yl]urea]: the IC50 at hCB1R [1] amounted to 3.23 µM; at hCB1R [2] (setting [6]), 0.501 ± 0.058 µM.

`COc1ccccc1-c1ccc(NC(=O)Nc2ccc(Cl)cc2)s1` [Compound 29, 1-(4-Chlorophenyl)-3-[5-(2-methoxyphenyl)thiophen-2-yl]urea]: the IC50 at hCB1R [1] was 2.02 µM; at hCB1R [2] (setting [6]), 0.058 µM.

With `COc1cccc(-c2ccc(NC(=O)Nc3ccc(Cl)cc3)s2)c1` [Compound 30, 1-(4-Chlorophenyl)-3-[5-(3-methoxyphenyl)thiophen-2-yl]urea], the IC50 on hCB1R [1] came to 3.28 µM; at hCB1R [2] (setting [6]) it was 0.061 µM; at mouse CB1R (setting [7]), 3.02 µM; at mouse CB1R (setting [8]), 1.62 µM; at hCB1R [5], 6.35 µM.

Take `COc1ccc(-c2ccc(NC(=O)Nc3ccc(Cl)cc3)s2)cc1` [Compound 31, 1-(4-Chlorophenyl)-3-[5-(4-methoxyphenyl)thiophen-2-yl]urea]: the half-maximal inhibitory concentration (IC50) at hCB1R [1] stood at 0.449 µM; at hCB1R [2] (setting [6]), 0.031 ± 0.002 µM; on mouse CB1R (setting [7]) it was 0.11 µM; on mouse CB1R (setting [8]), 0.12 µM; against hCB1R [5] it was 1.85 µM.

For `Cc1cccc(-c2ccc(NC(=O)Nc3ccc(Cl)cc3)s2)c1` [Compound 32, 1-(4-Chlorophenyl)-3-[5-(3-methylphenyl)thiophen-2-yl]urea], the IC50 at hCB1R [1] came out at 1.18 µM; on hCB1R [2] (setting [6]) it was 0.048 ± 0.008 µM.

Turning to `CN(C)c1cccc(-c2ccc(NC(=O)Nc3ccc(Cl)cc3)s2)c1` [Compound 33, 1-(4-Chlorophenyl)-3-{5-[3-(dimethylamino)phenyl]thiophen-2-yl}urea], the IC50 at hCB1R [1] is 5.02 µM; at hCB1R [2] (setting [6]), 0.089 ± 0.014 µM; on mouse CB1R (setting [7]) it was 3.47 µM; on mouse CB1R (setting [8]), 3.31 µM; against hCB1R [5] it was over 10 µM.

For `O=C(Nc1ccc(Cl)cc1)Nc1ccc(-c2cccnc2)s1` [Compound 34, 1-(4-Chlorophenyl)-3-[5-(pyridin-3-yl)thiophen-2-yl]urea], the IC50 at hCB1R [1] was found to be 0.298 µM; at hCB1R [2] (setting [6]), 0.107 ± 0.006 µM.

As for `Cc1cccc(CCNC(=O)Nc2ccc(Cl)cc2)c1` [Compound 60, 3-(4-Chlorophenyl)1-[2-(3-methylphenyl)ethyl]urea], the results for the IC50 on hCB1R [2] and at mouse CB1R (setting [9]) were 0.045 ± 0.009 µM and 4.18 µM, respectively.

As for `O=C(NCCc1cccc(F)c1)Nc1ccc(Cl)cc1` [Compound 62, 3-(4-Chlorophenyl)-1-[2-(3-fluorophenyl)ethyl]urea], the IC50 turned out to be 0.053 ± 0.009 µM on hCB1R [2] and 1.52 µM on mouse CB1R (setting [9]).

For `O=C(NCCc1cccc(C(F)(F)F)c1)Nc1ccc(Cl)cc1` [Compound 74, 3-(4-Chlorophenyl)-1-{2-[3-(trifluoromethyl)phenyl]ethyl}urea], the IC50 at hCB1R [2] turned out to be 0.032 ± 0.007 µM; at mouse CB1R (setting [9]), 0.766 µM.

In the case of `Cc1ccc(CCNC(=O)Nc2ccc(Cl)cc2)o1` [Compound 79, 1-(4-Chlorophenyl)-3-[2-(5-methylfuran-2-yl)ethyl]urea], the IC50 turned out to be 0.255 ± 0.04 µM at hCB1R [2] (setting [6]) and 2.77 µM at mouse CB1R (setting [9]).
